In a melting point compilation (Tetko et al.; mined from patent text by program, amines drawn as free bases though some values may be those of a salt):

Row | Compound | melting point [°C]
1 | Cc1ccc(S(=O)(=O)Cc2ccc(C(O)(C(F)(F)F)C(F)(F)F)cc2)cc1 | 129
2 | CC(C)(C)OC(=O)N1CCc2cc(OCc3ccccc3)c(OCc3ccccc3)cc2C1Cc1ccc(N)c(I)c1 (stereo not given) | 169 to 171
3 | CCCOc1cc(CCCO)n(Cc2ccc(F)cc2F)n1 | 66 to 67
4 | CN1CCC(=C2c3c(ccn3C)CCn3cnnc32)CC1 | 214
5 | CCc1c(Cc2cc(OC)c(OC)c(OC)c2)[nH]c(=O)c(CC(C)C)[n+]1[O-] | 126 to 127
6 | CC(Cl)(Cl)C(NC(=O)c1ccc(Cl)cc1)NC(=NC#N)Nc1ccc(C(F)(F)F)nc1 (stereo not given) | 204 to 205
7 | CC(=O)Nc1ccc(OC2SCC(O)C(O)C2O)cn1 (stereo not given) | 209
8 | CCOC(=O)N1Cc2sc3ncn(CCN4CCN(c5ccccc5OC)CC4)c(=O)c3c2C1 | 153 to 155
9 | COc1cc(C(C)C)c(Oc2cnc(NC(CO)CO)nc2N)cc1I | 158 to 159
10 | O=C1c2ccc(N3CCCC3)c3c(Cl)c(Cl)cc(c23)C(=O)N1O | 200 to 201
11 | CCOC(=O)/C=C/c1c2c(nn1-c1ccc(F)cc1)C(Cc1ccccc1)CCC2 (stereo not given) | 117 to 118
12 | CCCCCCCCCCCCCCCCCCOc1cc(NC(C)=O)cc(N(CC(=O)OCc2ccccc2)CC(=O)OCc2ccccc2)c1 | 89 to 90
13 | O=C(Nc1ccccc1F)O[C@@H]1CN=C(c2ccccc2)O[C@H]1c1ccccc1 (racemic) | 98
14 | COc1cc(O)c(C=O)c(-c2nc(C)no2)c1C | 135 to 136
15 | Cc1ccc(N)c(S)c1 | 90
16 | O=[N+]([O-])c1cnc2ccc(SC(c3ccccc3)(c3ccccc3)c3ccccc3)nn12 | 168 to 170
17 | CN(C)CCOC(=O)c1cc2cccc(O)c2[nH]1 | 149 to 152
18 | CCOCn1c(-c2ccc(Cl)cc2)c(C(N)=O)c(Br)c1C(F)(F)F | 163 to 172

Row | Compound | melting point [°C]
19 | COc1cc(C2=C(c3c[nH]c4cccnc34)C(=O)NC2=O)cc(OC)c1OC | 274 to 275
20 | O=[N+]([O-])c1ccccc1-c1nnc(-c2ccc(C3OCCO3)cc2)o1 | 88 to 89
21 | C=CCOc1cc(-n2c(OCC)nc(C(F)(F)F)cc2=O)c(F)cc1Br | 68 to 70
22 | CCOC(=O)c1sc(-n2c(=O)n(Cc3ccc(F)cc3)c3ccccc32)nc1C | 192 to 193
23 | CSc1ccc(COc2cccc(C(=O)Nc3ccc(C#N)cc3)c2)cc1 | 147 to 148
24 | COc1cc2c(cc1OC)CN(C)C2 | 80
25 | Cc1ccc2c(=O)c(C(=O)O)cn(CCOC=O)c2n1 | 213 to 214
26 | COC(=O)c1ccccc1NC(C#N)c1ccc(Br)cc1 (stereo not given) | 112
27 | CCCCCCCCCCCCCCC(=O)C(=O)NCCCC(=O)OC(C)(C)C | 61 to 62
28 | N#Cc1ccc(C(=O)n2ccnc2)cc1 | 152 to 154
29 | N#Cc1ccc(-c2ccc(C=O)cc2)c(OCc2ccccc2)c1 | 131 to 132
30 | CCNC(=O)[C@H](C)C[C@H](O)[C@H](CC1CCCCC1)NC(=O)OC(C)(C)C | 126 to 127
31 | COc1ccc(C(Sc2cc(Oc3cccc(C)c3)ccc2N)C(O)C(=O)O)cc1 (stereo not given) | 163 to 165
32 | COc1cc(OCc2ccccn2)ccc1C=CC(=O)CC(C)=O | 81 to 82
33 | O=C(N[C@H]1CC[C@H](CCN2CCN(c3nccc4c3CCO4)CC2)CC1)c1ccc(-c2ccccc2)cc1 | 232
34 | O=C(c1cc(-c2ccccc2)c(=O)n2c1-c1ccccc1C2)N1CCOCC1 | 262 to 266
35 | CNC(=S)N(C)Cc1ccc(Cl)nc1 | 109 to 110
36 | CC(C)(C)n1cc(-c2ccc(S(=O)(=O)c3ccccc3)cc2)c2c(N)ncnc21 | 222 to 224

More lines, now with the values ahead:

Row | melting point [°C] | Compound
37 | 175 to 184 | O=C(O)c1nccnc1N1CCN(CC(O)CO)CC1 (stereo not given)
38 | 56 to 58 | Clc1ccccc1Oc1ccnc2c(Cl)cccc12
39 | 141 to 142 | COC(=O)c1c(Br)c(Cl)cc2nn(C)cc12
40 | 226 to 228 | OC(Cn1ccnc1)C12CC3CC(CC(C3)C1)C2 (stereo not given)
41 | 144 to 146 | COc1ccc(CN2CC=C(/C=C/c3ccccc3)CC2)cc1
42 | 143 to 144 | O=C(O)CCc1cn(Cc2ccc3cc(OCc4ccccc4F)ccc3c2)cc1-c1ccccc1
43 | 325 to 326 | CC(C)(C)c1ccc(Sc2cc(C(=O)O)ccc2C(=O)O)cc1
44 | < 50 | COC(=O)C(C)(C)Nc1ccc(OCc2ccccc2)cc1
45 | 206 to 208 | CCc1[nH]c(=O)[nH]c1C(=O)C(C)C
46 | 79 to 81 | CSc1cc2c(cc1C(F)(F)F)N(C(=O)Nc1cccc(C(=O)NCCN3CCCCC3)c1)CC2
47 | 165 | O=C(O)Cc1cccc(NC(=O)NCC(=O)N2[C@@H](c3ccccc3O)CC[C@H]2c2ccccc2)c1 (racemic)
48 | 136 to 138 | O=C(NCC(F)(F)F)C1(CCCCc2ccc(NS(=O)(=O)c3ccc([N+](=O)[O-])cc3)cc2)c2ccccc2-c2ccccc21
49 | 113 to 115 | CSC(=N)NS(=O)(=O)c1c(Cl)sc(Cl)c1Br
50 | 128 to 130 | CC1(C)CCC(=O)Nc2cc(OCCCCCN3CCN(c4cccc(Cl)c4Cl)CC3)ccc21
51 | 154 to 155 | COc1ccc(-c2cc(C(=O)O)c(=O)n(CC3CC3)n2)cc1
52 | 195 to 196 | CCN(CC)c1ccc2nc3c4ccccc4c(=Nc4cc(C)on4)cc-3oc2c1
53 | 206 to 211 | N#Cc1ccc(N(Cc2ccc(OCc3ccccc3)cc2)n2cnnc2)cc1

Row | melting point [°C] | Compound
54 | 167 to 168 | Cc1nc(-n2cnn(CC3CC3)c2=O)sc1C(=O)NCc1cc[nH]n1
55 | 261 to 263 | CC(=O)N1C(=O)NC(=O)C12c1ccccc1N(C)C(=O)N2C (stereo not given)
56 | 173 to 175 | O=C(NCc1ccc(F)cc1)c1ccnc(N2CCN(Cc3ccc(F)cc3)C2=O)c1
57 | 178 to 180 | COc1ccc2c(c1)c1c(n2C)CC(C(N)=O)C1 (stereo not given)
58 | 178 to 181 | COCCN1CCc2ccc(Nc3ncc(Cl)c(Nc4ccccc4C(=O)NCC(C)C)n3)cc2CC1
59 | 70 | CC(OCc1cc2cc(Cl)ccc2n1S(=O)(=O)c1ccc2c(c1)OCCO2)C(=O)O (stereo not given)
60 | 175 to 180 | CC1(CCCOc2ccc([N+](=O)[O-])c(C=C3NC(=O)NC3=O)c2)OCCO1
61 | 135 to 145 | COc1cccc2c(CCN(C3CCC3)C3COc4c(F)ccc(C(N)=O)c4C3)coc12 (stereo not given)
62 | 91 to 94 | COc1ccc(C(=O)n2c(C)c(Cc3cc(=O)n(-c4cccc(C(F)(F)F)c4)[nH]3)c3cc(OC)ccc32)cc1
63 | 185 to 187 | Cc1cc(=O)c2ccc(OCCCN3CCC(NC(=O)c4ccccc4[N+](=O)[O-])CC3)cc2o1
64 | 70 to 71 | COc1ccc(C=CCO)cc1OC
65 | 133 to 135 | Cc1oc(-c2ccc(C(F)(F)F)cc2)nc1-c1cccc(-c2ccc(O)cc2)c1
66 | 161 | O=C(O)Cc1ccc2[nH]c(=O)[nH]c2c1
67 | 200 to 204 | COc1cc(C)nc(NC(=O)NS(=O)(=O)c2ccccc2-n2cccn2)n1
68 | 115 to 117 | O=c1cc(NCCN2CCN(c3cc(Cl)cc4c3OCCO4)CC2)cn[nH]1
69 | 222 to 224 | NC(=O)N1C(=O)C(C(=O)c2cccs2)c2nc(Cl)ccc21 (stereo not given)
70 | 76 to 78 | CCCCCCCC(=O)NCc1ccccc1
